Target: T1, His-tagged human recombinant DDR-2 kinase domain (His-TEV-DDR2 467-855 aa) (Homo sapiens, UniProt Q16832)
T1 construct: His-TEV-DDR2 467-855 aa
T1 sequence (Q16832 467-855): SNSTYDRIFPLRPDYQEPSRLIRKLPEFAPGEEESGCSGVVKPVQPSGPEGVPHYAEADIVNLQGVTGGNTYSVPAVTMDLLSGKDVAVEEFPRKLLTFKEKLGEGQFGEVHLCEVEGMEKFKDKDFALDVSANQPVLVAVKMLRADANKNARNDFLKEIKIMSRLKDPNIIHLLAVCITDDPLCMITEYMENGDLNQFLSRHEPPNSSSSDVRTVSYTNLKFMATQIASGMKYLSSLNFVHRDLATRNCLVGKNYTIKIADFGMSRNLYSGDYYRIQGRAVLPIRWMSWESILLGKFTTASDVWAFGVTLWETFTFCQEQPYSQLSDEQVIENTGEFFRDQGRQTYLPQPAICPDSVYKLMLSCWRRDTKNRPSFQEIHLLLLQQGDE
Assay: Autophosphorylation assay for biochemical activity testing of DDR2 (HTRF)
Conditions: biochemical DDR2 autophosphorylation
Experimental: The autophosphorylation assay was run in two steps: the enzymatic reaction in which His-tagged DDR2 with ATP as co-substrate phosphorylates itself and the detection reaction where a time resolved FRET between XL665® labelled anti-6His antibody bound to the His-tag of the enzyme and cryptate labelled anti-phospho-Tyrosine-antibody (PT66) bound the phosphorylated Tyrosine residue of DDR2 was analysed. The autophosphorylation activity was detectable directly via the increase in HTRF signal.
The autophosphorylation assay was performed as 1536 well or 384 well HTRF® (Cisbio, Codolet, France) assay format in Greiner low volume medium binding 384-well microtiter plates and was used for high throughput screen. […] The ratio of the emission signals was determined. The full value used was the inhibitor-free reaction.

| IC50 | SMILES |
| --- | --- |
| 9.6 µM | CC(C)c1ccc(NC(=O)NCc2ccc(Oc3ccncc3)cc2)cc1 [compound 49, 1-(4-Isopropyl-phenyl)-3-[4-(pyridin-4-yloxy)-benzyl]-urea] |
| 1.7 µM | Cc1ccc(Cl)cc1NC(=O)NCc1ccc(Oc2ccncc2)cc1 [compound 50, 1-(5-Chloro-2-methyl-phenyl)-3-[4-(pyridin-4-yloxy)-benzyl]-urea] |
| 10 µM | CSc1ccc(NC(=O)NCc2ccc(Oc3ccncc3)cc2)cc1 [compound 51, 1-(4-Methylsulfanyl-phenyl)-3-[4-(pyridin-4-yloxy)-benzyl]-urea] |
| 9.9 µM | CCc1ccc(NC(=O)NCc2ccc(Oc3ccncc3)cc2)cc1 [compound 52, 1-(4-Ethyl-phenyl)-3-[4-(pyridin-4-yloxy)-benzyl]-urea] |
| 0.056 µM | O=C(NCc1ccc(Oc2ccncc2)cc1)Nc1cccc(Br)c1 [compound 53, 1-(3-Bromo-phenyl)-3-[4-(pyridin-4-yloxy)-benzyl]-urea] |
| ≥ 100 µM | Cc1cc(Cl)ccc1NC(=O)NCc1ccc(Oc2ccncc2)cc1 [compound 54, 1-(4-Chloro-2-methyl-phenyl)-3-[4-(pyridin-4-yloxy)-benzyl]-urea] |
| 7.5 µM | O=C(NCc1ccc(Oc2ccncc2)cc1)Nc1ccc(OC(F)(F)F)cc1 [compound 55, 1-[4-(Pyridin-4-yloxy)-benzyl]-3-(4-trifluoromethoxy-phenyl)-urea] |
| 16 µM | CC(C)(C)c1ccc(NC(=O)NCc2ccc(Oc3ccncc3)cc2)cc1 [compound 56, 1-(4-tert-Butyl-phenyl)-3-[4-(pyridin-4-yloxy)-benzyl]-urea] |
| 1.2 µM | O=C(NCc1ccc(Oc2ccncc2)cc1)Nc1cc(Cl)cc(Cl)c1 [compound 57, 1-(3,5-Dichloro-phenyl)-3-[4-(pyridin-4-yloxy)-benzyl]-urea] |
| 4.7 µM | Cc1cc(NC(=O)NCc2ccc(Oc3ccncc3)cc2)ccc1Br [compound 58, 1-(4-Bromo-3-methyl-phenyl)-3-[4-(pyridin-4-yloxy)-benzyl]-urea] |
| 2.1 µM | Cc1ccc(NC(=O)NCc2ccc(Oc3ccncc3)cc2)cc1C [compound 59, 1-(3,4-Dimethyl-phenyl)-3-[4-(pyridin-4-yloxy)-benzyl]-urea] |
| 2.8 µM | COc1ccc(NC(=O)NCc2ccc(Oc3ccncc3)cc2)cc1Cl [compound 60, 1-(3-Chloro-4-methoxy-phenyl)-3-[4-(pyridin-4-yloxy)-benzyl]-urea] |
| 0.49 µM | CCc1cccc(NC(=O)NCc2ccc(Oc3ccncc3)cc2)c1 [compound 61, 1-(3-Ethyl-phenyl)-3-[4-(pyridin-4-yloxy)-benzyl]-urea] |
| 0.002 µM | COc1ccc(C(F)(F)F)cc1NC(=O)NCc1ccc(Oc2ccncc2)cc1 [compound 62, 1-(2-Methoxy-5-trifluoromethyl-phenyl)-3-[4-(pyridin-4-yloxy)-benzyl]-urea] |
| 0.061 µM | CNC(=O)c1cc(Oc2ccc(CNC(=O)Nc3cc(C(F)(F)F)ccc3OC)cc2)ccn1 [compound 63, 4-{4-[3-(2-Methoxy-5-trifluoromethyl-phenyl)-ureidomethyl]-phenoxy}-pyridine-2-carboxylic acid methylamide] |
| 1.7 µM | O=C(NCc1ccc(Oc2ccncc2)cc1)Nc1ccc(Br)c(C(F)(F)F)c1 [compound 64, 1-(4-Bromo-3-trifluoromethyl-phenyl)-3-[4-(pyridin-4-yloxy)-benzyl]-urea] |
| 0.035 µM | O=C(NCc1ccc(Oc2ccncc2)cc1)Nc1cccc(OC(F)(F)F)c1 [compound 65, 1-[4-(Pyridin-4-yloxy)-benzyl]-3-(3-trifluoromethoxy-phenyl)-urea] |
| 0.175 µM | CNC(=O)c1cc(Oc2ccc(CNC(=O)Nc3cc(C(F)(F)F)c(Cl)cc3OC)cc2)ccn1 [compound 67, 4-{4-[3-(4-Chloro-2-methoxy-5-trifluoromethyl-phenyl)-ureidomethyl]-phenoxy}-pyridine-2-carboxylic acid methylamide] |

| IC50 | SMILES |
| --- | --- |
| 4.6 µM | O=C(Nc1ccc(Cl)c(C(F)(F)F)c1)NC1(c2ccc(Oc3ccncc3)cc2)CC1 [compound 68, 1-(4-Chloro-3-trifluoromethyl-phenyl)-3-{1-[4-(pyridin-4-yloxy)-phenyl]-cyclopropyl}-urea] |
| 0.15 µM | CNC(=O)c1cc(Oc2ccc(C(C)NC(=O)Nc3cc(C(F)(F)F)ccc3OC)cc2)ccn1 (stereo not drawn) [compound 69, 4-(4-{1-[3-(2-Methoxy-5-trifluoromethyl-phenyl)-ureido]-ethyl}-phenoxy)-pyridine-2-carboxylic acid methylamide] |
| 0.069 µM | CNC(=O)c1cc(Oc2ccc(CNC(=O)Nc3cc(C)ccc3OC)cc2)ccn1 [compound 75, 4-{4-[3-(2-Methoxy-5-methyl-phenyl)-ureidomethyl]-phenoxy}-pyridine-2-carboxylic acid methylamide] |
| 0.078 µM | CNC(=O)c1cc(Oc2ccc(CNC(=O)Nc3cc(C(F)(F)F)ccc3OCCN(C)C)cc2)ccn1 [compound 77, 4-(4-{3-[2-(2-Dimethylamino-ethoxy)-5-trifluoromethyl-phenyl]-ureidomethyl}-phenoxy)-pyridine-2-carboxylic acid methylamide] |
| 0.41 µM | CNC(=O)c1cc(Oc2ccc(CNC(=O)Nc3ccc(Cl)cc3OC)cc2)ccn1 [compound 79, 4-{4-[3-(4-Chloro-2-methoxy-phenyl)-ureidomethyl]-phenoxy}-pyridine-2-carboxylic acid methylamide] |
| 0.23 µM | CNC(=O)c1cc(Oc2ccc(CNC(=O)Nc3cc(OC)c([N+](=O)[O-])cc3OC)cc2)ccn1 [compound 81, 4-{4-[3-(2,5-Dimethoxy-4-nitro-phenyl)-ureidomethyl]-phenoxy}-pyridine-2-carboxylic acid methylamide] |
| 2.9 µM | CNC(=O)c1cc(Oc2ccc(CNC(=O)Nc3ccc(C(=O)OC)cc3OC)cc2)ccn1 [compound 82, 3-Methoxy-4-{3-[4-(2-methylcarbamoyl-pyridin-4-yloxy)-benzyl]-ureido}-benzoic acid methyl ester] |
| 3.8 µM | CNC(=O)c1cc(Oc2ccc(CNC(=O)Nc3ccccn3)cc2)ccn1 [compound 85, 4-{4-[(3-Pyridin-2-yl-ureido)-methyl]-phenoxy}-pyridine-2-carboxylic acid methylamide] |
| 1.2 µM | CNC(=O)c1cc(Oc2ccc(CNC(=O)Nc3ccccc3OCCCN(C)C)cc2)ccn1 [compound 86, 4-(4-{3-[2-(3-Dimethylamino-propoxy)-phenyl]-ureidomethyl}-phenoxy)-pyridine-2-carboxylic acid methylamide] |
| 1.6 µM | CNC(=O)c1cc(Oc2ccc(CNC(=O)Nc3cccnc3OC)cc2)ccn1 [compound 87, 4-{4-[3-(2-Methoxy-pyridin-3-yl)-ureidomethyl]-phenoxy}-pyridine-2-carboxylic acid methylamide] |
| 15 µM | CNC(=O)c1cc(Oc2ccc(CNC(=O)Nc3cccnc3)cc2)ccn1 [compound 88, 4-{4-[(3-Pyridin-3-yl-ureido)-methyl]-phenoxy}-pyridine-2-carboxylic acid methylamide] |
| ≥ 100 µM | CNC(=O)c1cc(Oc2ccc(CNC(=O)Nc3ccncc3)cc2)ccn1 [compound 90, 4-{4-[(3-Pyridin-4-yl-ureido)-methyl]-phenoxy}-pyridine-2-carboxylic acid methylamide] |
| 6.6 µM | CNC(=O)c1cc(Oc2ccc(CNC(=O)Nc3ncc(C(F)(F)F)cc3Cl)cc2)ccn1 [compound 91, 4-{4-[3-(3-Chloro-5-trifluoromethyl-pyridin-2-yl)-ureidomethyl]-phenoxy}-pyridine-2-carboxylic acid methylamide] |
| 0.038 µM | CNC(=O)c1cc(Oc2ccc(CNC(=O)Nc3cc(C(F)(F)F)ccc3OCC(=O)OC)cc2)ccn1 [compound 92, (2-{3-[4-(2-Methylcarbamoyl-pyridin-4-yloxy)-benzyl]-ureido}-4-trifluoromethyl-phenoxy)-acetic acid methyl ester] |
| 1.6 µM | CNC(=O)c1cc(Oc2ccc(CNC(=O)Nc3cc(C(F)(F)F)ccc3OCC(=O)O)cc2)ccn1 [compound 94, (2-{3-[4-(2-Methylcarbamoyl-pyridin-4-yloxy)-benzyl]-ureido}-4-trifluoromethyl-phenoxy)-acetic acid] |
| 0.081 µM | CNC(=O)c1cc(Oc2ccc(CNC(=O)Nc3cc(C(F)(F)F)c(Cl)cc3OCCN(C)C)cc2)ccn1 [compound 95, 4-(4-{3-[4-Chloro-2-(2-dimethylamino-ethoxy)-5-trifluoromethyl-phenyl]-ureidomethyl}-phenoxy)-pyridine-2-carboxylic acid methylamide] |
| 0.17 µM | CNC(=O)c1cc(Oc2ccc(CNC(=O)Nc3cc4ccccc4cn3)cc2)ccn1 [compound 96, 4-{4-[(3-Isoquinolin-3-yl-ureido)-methyl]-phenoxy}-pyridine-2-carboxylic acid methylamide] |

| SMILES | IC50 |
| --- | --- |
| CNC(=O)c1cc(Oc2ccc(CNC(=O)Nc3cc(Cl)cnc3Cl)cc2)ccn1 [compound 93, 4-{4-[3-(2,5-Dichloro-pyridin-3-yl)-ureidomethyl]-phenoxy}-pyridine-2-carboxylic acid methylamide] | 0.042 µM |

Source: US20150225369A1, “DDR2 INHIBITORS FOR THE TREATMENT OF OSTEOARTHRITIS” (Merck Patent GmbH, priority 2012, published 2015)
